Experiment: gradient 5% acetonitrile 3 min, to 50% in 2 min, to 85% in 15 min, held 3 min, 100 µL/min
Conditions: column: Zorbax Extend-C18 2.1 x 50 mm; eluents: water / acetonitrile, 0.1% formic acid
How it was run: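 Each retention time is based on an adduct peak selected computationally and verified by manual inspection. Measurements used HPLC–quadrupole time-of-flight mass spectrometry in positive and negative ionization mode on mixtures of ~100 pure standards. Chromatography ran on a Zorbax Extend-C18 column (2.1 × 50 mm, 1.8 μm) at 100 μL/min with water and acetonitrile, each containing 0.1% formic acid, and dead and dwell volumes of 40 μL and 900 μL.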

| Structure (SMILES) | RP-LC retention time [s] |
| --- | --- |
| COc1ccc(OC)c(Nc2c(-c3ccccc3)nc3cnccn23)c1 | 839 |
| Fc1ccc(OCc2nnc3sc(CCCc4ccccc4)nn23)cc1 | 1030 |
| O=C1c2ccccc2C(=O)C1c1ccccn1 | 749 |
| CCOC(=O)CCc1c(C)nn(-c2cc(N3CCOCC3)ncn2)c1C | 863 |
| CCc1sc(NC(=O)CS(=O)(=O)c2ccc(C)cc2)nc1-c1ccccc1 | 1040 |
| O=C(NC1CCCCC1)c1cn(-c2cc(-c3nc(C4CC4)no3)ccn2)cn1 | 961 |
| COCCCNC(=O)C1CCN(c2ncccc2S(=O)(=O)N2CCOCC2)CC1 | 613 |
| Cc1cncn(CC(=O)NCc2cccs2)c1=O | 580 |
| CC(C)CC(=O)N1CCCC(COc2ccc(C(=O)NC(C)C)cc2)C1 (stereo not given) | 827 |
| Cn1c(=O)c(=O)n(C)c2cc(N3CCOCC3)c(NC(=O)C3CC3)cc21 | 623 |
| CC(C)NC(=O)c1ccc(OCC2CCCN(C(=O)c3c(F)cccc3F)C2)cc1 (stereo not given) | 841 |
| CCOc1ccc(N(C)S(=O)(=O)c2ccsc2C(=O)NCc2cccc(OCC)c2)cc1 | 1160 |
| O=C(NCc1ccco1)C1CCCN(C(=O)c2cccn2-c2cccnc2)C1 (stereo not given) | 600 |
| CC1CCN(S(=O)(=O)c2ccccc2-c2nc(-c3ccccc3)no2)CC1 | 1200 |
| COc1ccc(CNC(=O)c2cc(-c3ccncc3)cn2C)cc1OC | 605 |
| COc1ccc(-n2c(Cc3cccn3C)nnc2SCC(=O)NCC2CCCO2)cc1 (stereo not given) | 655 |
| COc1ccccc1CC(=O)N1CCCn2nc(-c3ccc(Cl)cc3)cc2C1 | 1010 |
| O=C(CNC(=O)c1ccncc1)Nc1nc2ccccc2[nH]1 | 554 |
| CC1=C(c2ccc(Cl)cc2)S(=O)(=O)N=C1N1CCCN(C(=O)CC(C)(C)C)CC1 | 944 |
| CSc1ccc(-c2nc3ccc(C)cn3c2Nc2ccccc2C)cc1 | 795 |
| CC(C)n1cnc2cc(CNC(=O)c3ccc(F)cc3Cl)ccc21 | 619 |
| CCOC(=O)C1=C(CN(C)Cc2ccccc2)NC(=O)NC1c1cccc(OC)c1OC (stereo not given) | 659 |
| Cc1ccc2nc(-c3ccc(NS(=O)(=O)c4cn(C)c(=O)n(C)c4=O)cc3)sc2c1 | 870 |

| Structure (SMILES) | RP-LC retention time [s] |
| --- | --- |
| CC(C)Oc1ccc(CNS(=O)(=O)c2cc(-c3nc(C(C)C)cs3)cs2)cc1 | 1210 |
| O=C(CCc1ccc2cc[nH]c2c1)NCc1ccc(F)cc1 | 808 |
| Cc1cc(Cl)ccc1S(=O)(=O)N1CCN(C2CCN(Cc3ccccn3)C2=O)CC1 (stereo not given) | 608 |
| CCCOc1nc2ccccc2nc1N1CCCC(C(=O)NC2CCCCC2C)C1 (stereo not given) | 1310 |
| Nc1nc(Nc2ccccc2Cl)nc2ccccc12 | 615 |
| CC(=O)N1CCc2cc(-c3ccc(C(=O)NC4CCS(=O)(=O)C4)cc3)ccc21 (stereo not given) | 676 |
| COCCn1c(SCc2nc(-c3ccccc3)no2)nc2cc3c(cc2c1=O)OCO3 | 1040 |
| O=C(CSc1ccc(-n2cccn2)nn1)NCc1ccco1 | 653 |
| CCOC(=O)C1=C(c2ccccc2)NC(SCC)=C(C#N)C1c1cccnc1 (stereo not given) | 650 |
| O=C(c1cn2c(n1)COCC2)N(Cc1ccccc1)Cc1ccco1 | 716 |
| CCOc1ccc(CNC(=S)Nc2ccc3nc(N4CCN(C)CC4)cc(C)c3c2)cc1 | 614 |
| N#Cc1ccc(NC(=O)Cn2cccc(-c3nc(-c4ccccc4)no3)c2=O)cc1 | 837 |
| CCOC(=O)N1CCC2(CC1)N=C(c1ccc(OCC)cc1)CC(c1ccccc1O)N2 (stereo not given) | 772 |
| CCCn1cc(S(=O)(=O)Nc2cc(Cl)ccc2OC)c2cccnc21 | 995 |
| CCC(C(=O)N(C)CCc1noc(-c2ccc(C(=O)N3CCCC3)cc2)n1)c1ccccc1 (stereo not given) | 872 |
| C[C@@H](NC(=O)c1ccccc1F)C(=O)NCc1cscn1 | 620 |
| CC(C)(C)c1ccc(O)c(NC(=O)c2cn(-c3ccc(S(=O)(=O)N4CCCC4)cc3)cn2)c1 | 1020 |
| c1ccc2c(c1)CC(N1CCN(c3cccc4c3OCCO4)CC1)C2 | 741 |
| COc1ccc(-c2ncc(NC(=O)C(C)C)cn2)cc1 | 802 |
| COc1cccc(NC(=O)Nc2nccn(-c3ccc(F)c(F)c3)c2=O)c1 | 927 |
| Cc1ccc(CNC(=O)Cn2c(=O)c(=O)n(C)c3ncccc32)o1 | 656 |
| Cc1cc(C(=O)N2C[C@@H](C)[C@H](c3nc(-c4ccccc4)no3)C2)n[nH]1 | 804 |
| Cc1cccc(S(=O)(=O)N2CCN(c3nc4ccncc4n(CC(C)C)c3=O)CC2)c1 | 778 |

| Structure (SMILES) | RP-LC retention time [s] |
| --- | --- |
| COCCN1C(=O)CCc2cc(NS(=O)(=O)c3ccc4c(c3)CCC4)ccc21 | 854 |
| CC(C)CN(CC(C)C)c1nc(-c2ccc(Cl)cc2)nc2ccccc12 | 1130 |
| O=C(c1ccccc1Br)N1CCc2nc[nH]c2C1 | 563 |
| COc1cccc(C(=O)Nc2ccc3c(c2)Sc2ncccc2C(=O)N3C)c1 | 785 |
| Cn1c(=O)sc2cc(S(=O)(=O)N3CCC(C(=O)N4CCC5(CC4)OCCO5)CC3)ccc21 | 709 |
| Nc1ccccc1SC1CC(=O)N(c2ccccc2Cl)C1=O (stereo not given) | 884 |
| CCc1noc(NC(C)=O)c1-c1ccc(OC)c(S(=O)(=O)N2CC=C(c3ccccc3)CC2)c1 | 918 |
| O=C(CC1CCN(C(=O)C2(c3ccccc3)CC2)C1)NC1CC1 (stereo not given) | 666 |
| COc1ccccc1-c1cc(C(F)(F)F)n2ncc(C(=O)OCCN3CCCC3=O)c2n1 | 894 |
| CCc1nc(-c2csc(S(=O)(=O)N3CCC(C(=O)NC4CCCCC4)CC3)c2)no1 | 955 |
| Cn1cc(S(=O)(=O)Nc2ccc(F)cc2Cl)c2cccnc21 | 814 |
| COC(=O)Nc1nc(CC(=O)Nc2ccc(OC(F)(F)F)cc2)cs1 | 766 |
| COC(=O)c1cc(S(=O)(=O)N2CCCC2C(=O)Nc2cccc(C(F)(F)F)c2)cn1C (stereo not given) | 971 |
| Cn1c(=O)n(C)c2cc(CNc3ccc4c(c3)OCO4)ccc21 | 630 |
| COc1ccccc1-c1noc(-c2nnn3c2COC(c2ccc(Cl)cc2)C3)n1 (stereo not given) | 1220 |
| Cn1nnc2c(N3CCN(C(=O)C(C)(C)Oc4ccc(Cl)cc4)CC3)ncnc21 | 850 |
| Cc1oc2ncnc(OCC(=O)Nc3ccc(S(N)(=O)=O)cc3)c2c1C | 738 |
| CN(C(=O)CSc1nnc(-c2ccc(Cl)cc2)o1)C1CCCCC1 | 1090 |
| CCOc1ccc(CCNC(=O)c2cc3sc(Cl)cc3n2CC)cc1OCC | 1200 |
| COc1ccc(NS(=O)(=O)c2cc3n(c2)CCN(C)C3=O)cc1 | 657 |
| CCCc1ccc(S(=O)(=O)N2CCc3c(c(-c4nnc(-c5ccc(C)cc5)o4)nn3C)C2)cc1 | 1160 |
| COc1ccccc1C(=O)N1CCC2(CC1)c1nccn1-c1ccccc1CN2CC(C)C | 692 |
| CCOC(=O)c1cnc2nc(C)ccc2c1Nc1cc(F)cc(F)c1 | 736 |

| Structure (SMILES) | RP-LC retention time [s] |
| --- | --- |
| CCN1CCN(C(=O)CC2Sc3ncccc3N(CC)C2=O)CC1 (stereo not given) | 576 |
| O=C(Cn1ccc2ccc(N3CCOCC3)nc21)NCc1ccc(F)cc1F | 870 |
| COc1ccccc1C(=O)N1CCC(COc2ccc(C(=O)NC(C)C)cc2)CC1 | 817 |
| COc1cccc(CC(=O)Nc2ccc3c(c2)Sc2ncccc2C(=O)N3C(C)C)c1 | 855 |
| CCCc1cc(N2CCN(C(=O)c3ccc(C#N)cc3)CC2)nc2nncn12 | 609 |
| Cc1ccccc1CNS(=O)(=O)c1c[nH]c2ncccc12 | 730 |
| CCN(c1ccccc1C)S(=O)(=O)c1cc(-c2[nH]ncc2C(=O)N(C)C)oc1C | 782 |
| CCCS(=O)(=O)N1CC2(CCCCC2)CC1COCc1ccccc1 (stereo not given) | 1260 |
| Cc1ccc(-c2coc(-c3ccc(NC(=O)c4cccs4)cc3)n2)c(C)c1 | 1270 |
| CN(C)c1ccc(CN2CCc3nc(N4CCN(c5ccccc5F)CC4)ncc3C2)cc1 | 807 |
| Cc1ccc(NC(=O)C2CCN(c3nnc4ccc(Cl)cn34)CC2)c(F)c1 | 749 |
| CCCN(C(=O)Nc1ccccc1[N+](=O)[O-])c1nc(-c2ccccc2)cs1 | 1400 |
| Cc1ccc(C)c(NC(=O)CSc2cc(N3CCN(c4ccccc4F)CC3)ncn2)c1 | 1160 |
| COc1ccc(-c2cc(C(=O)Nc3ccc(F)c(F)c3)sn2)cc1 | 1180 |
| COc1c(C(=O)NC(C)C)sc2cccc(F)c12 | 968 |
| COc1ccc(-c2noc(-c3nn(-c4cccc(F)c4)ccc3=O)n2)cc1 | 874 |
| Cc1cc(-n2nnc(C(=O)O)c2C)ccc1F | 705 |
| Cn1nc(-c2ccccc2)cc1N | 599 |
| Cc1ccc(-c2nc3nc(C)cc(N(CCO)Cc4ccccc4)n3n2)cc1 | 815 |
| Cc1nc(N2CCCC(C(=O)Nc3ccc4c(c3)OCCO4)C2)c2c(C)c(C)oc2n1 (stereo not given) | 846 |
| CSc1cccc(N2C=C(C#N)S(=O)(=O)c3ccc(Cl)cc32)c1 | 961 |

From the METLIN SMRT retention time set (Domingo-Almenara et al. 2019)
